# What was measured:
# [1] = target: α-amylase from Pyrococcus woesei (partially purified) (Pyrococcus woesei, UniProt Q7LYT7); test: biochemical; conditions: 40 min, pH 5.5, read-out: enzyme activity measured in percent
# Method: The influence of metal cations and EDTA on the activity of α-amylase from P. woesei was performed with enzyme which was partially purified by gelfiltration on a Supsrose 12 column (Pharmacia, Sweden), see Table 2. The fractions containing α-amylase were collected and concentrated 4-fold. 25 μl of enzyme (400 U/l) were added to 100 μl of sodium acetate buffer (50 mM, pH 5.5) containing 1% (w/v) starch. Metal cations, which were dissolved in sodium acetate buffer (100 mM, pH 5.5), were added in various concentrations. Incubation was conducted in a glycerin bath (100° C.) for 40 min. The reducing sugars were finally detected as described by Bergmeyer and Grassi (supra). The values represent the enzyme activity measured in percent.
# [2] = target: extracellular α-amylase from Pyrococcus furiosus (partially purified) (Pyrococcus furiosus, UniProt Q8U3I9); conditions: EDTA concentration not given
# Method: In order to conduct physiochemical investigations the extracellular amylase was partially purified by gelfiltration. All experiments were performed in the absence of metal ions and under aerobic conditions.
# Sequence of α-amylase from Pyrococcus woesei (partially purified) (Q7LYT7 26-460): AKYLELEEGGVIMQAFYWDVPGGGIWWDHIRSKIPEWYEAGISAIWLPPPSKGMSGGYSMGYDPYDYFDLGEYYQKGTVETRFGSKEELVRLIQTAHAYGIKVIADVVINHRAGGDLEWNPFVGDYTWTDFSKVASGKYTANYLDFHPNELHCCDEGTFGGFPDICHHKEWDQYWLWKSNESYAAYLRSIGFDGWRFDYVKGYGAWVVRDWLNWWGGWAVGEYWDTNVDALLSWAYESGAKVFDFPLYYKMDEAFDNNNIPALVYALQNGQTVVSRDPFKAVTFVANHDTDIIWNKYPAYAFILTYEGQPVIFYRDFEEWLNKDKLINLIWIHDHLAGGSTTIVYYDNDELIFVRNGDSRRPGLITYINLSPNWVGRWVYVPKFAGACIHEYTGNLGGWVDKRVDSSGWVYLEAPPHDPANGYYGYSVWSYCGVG
# Sequence of extracellular α-amylase from Pyrococcus furiosus (partially purified) (Q8U3I9 39-473): as the sequence (Q7LYT7 26-460) above
structure (smiles),measurement,setting,value
O=C(O)CN(CCN(CC(=O)O)CC(=O)O)CC(=O)O [EDTA],remaining activity at 1000 µM,[1],95%
same,remaining activity at 2000 µM,[1],85%
same,remaining activity at 5000 µM,[1],60%
same,influence on amylase activity,[2],did not have any influence

# — patent US5370997A, “Hyperthermostable alpha-amylase” (Novo Nordisk A/S, priority 1989, dated 1994)
